biological target: Recombinant human cathepsin S (CatS) (Homo sapiens, UniProt P25774); assay: Recombinant human cathepsin S (CatS) inhibition assay, fluorogenic substrate Z-Valine-Valine-Arginine-AMC; details: not given;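 further: Baculovirus-expressed CatS in pH 5.0 sodium acetate buffer with DTT and NaCl, fluorescence read each minute over 20 min, inhibition derived from rate slope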
Sequence (P25774 115-331): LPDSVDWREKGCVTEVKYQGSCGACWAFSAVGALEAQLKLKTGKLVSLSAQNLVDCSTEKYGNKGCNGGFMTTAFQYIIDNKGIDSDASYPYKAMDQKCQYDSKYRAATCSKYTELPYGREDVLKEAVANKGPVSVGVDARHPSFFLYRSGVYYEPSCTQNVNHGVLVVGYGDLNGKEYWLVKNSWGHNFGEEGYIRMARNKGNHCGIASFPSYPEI

IC50 | Structure (SMILES)
170 nM | Cc1ccsc1CNCc1ccc(C#Cc2cc(-c3nn(CCCN4CCOC[C@@H]4C)c4c3CN(S(C)(=O)=O)CC4)ccc2Cl)cc1 [Example 431, 1-[4-({2-Chloro-5-[1-{3-[(3S)-3-methylmorpholin-4-yl]propyl}-5-(methylsulfonyl)-4,5,6,7-tetrahydro-1H-pyrazolo[4,3-c]pyridin-3-yl]phenyl}ethynyl)phenyl]-N-[(3-methyl-2-thienyl)methyl]methanamine]
20 nM | CC(=O)NC1CCN(CCCn2nc(-c3ccc(Cl)c(C#Cc4ccc(CNCc5ccc(Cl)cc5)cc4)c3)c3c2CCN(S(C)(=O)=O)C3)CC1 [Example 346, N-(1-{3-[3-(4-Chloro-3-{[4-({[(4-chlorophenyl)methyl]amino}methyl)phenyl]ethynyl}phenyl)-5-(methylsulfonyl)-4,5,6,7-tetrahydro-1H-pyrazolo[4,3-c]pyridin-1-yl]propyl}piperidin-4-yl)acetamide]
70 nM | CS(=O)(=O)N1CCc2c(c(-c3ccc(Cl)c(C#Cc4ccc(C(=O)NCCN5CCOCC5)cc4)c3)nn2CCCN2CCCCC2)C1 [Example 608, 4-({2-Chloro-5-[5-(methylsulfonyl)-1-(3-piperidin-1-ylpropyl)-4,5,6,7-tetrahydro-1H-pyrazolo[4,3-c]pyridin-3-yl]phenyl}ethynyl)-N-(2-morpholin-4-ylethyl)benzamide]
10 nM | CS(=O)(=O)N1CCc2c(c(-c3ccc(Cl)c(C#Cc4ccc(Cl)cc4)c3)nn2CC(O)CN2CCC(N3CCCC3=O)CC2)C1 (stereo not drawn) [Example 123]
280 nM | CS(=O)(=O)N1CCc2c(c(-c3ccc(Cl)c(C#Cc4ccc(CNCc5ccc(Cl)cc5)c(F)c4)c3)nn2CCCN2CCOCC2)C1 [Example 436, 1-[4-({2-Chloro-5-[5-(methylsulfonyl)-1-(3-morpholin-4-ylpropyl)-4,5,6,7-tetrahydro-1H-pyrazolo[4,3-c]pyridin-3-yl]phenyl}ethynyl)-2-fluorophenyl]-N-[(4-chlorophenyl)methyl]methanamine]
40 nM | CS(=O)(=O)N1CCc2c(c(-c3ccc(Cl)c(C#Cc4ccc(CNCc5ccc(Cl)cc5)cc4)c3)nn2CCCN2CCC(C(N)=O)CC2)C1 [Example 350, 1-{3-[3-(4-Chloro-3-{[4-({[(4-chlorophenyl)methyl]amino}methyl)phenyl]ethynyl}phenyl)-5-(methylsulfonyl)-4,5,6,7-tetrahydro-1H-pyrazolo[4,3-c]pyridin-1-yl]propyl}piperidine-4-carboxamide]
70 nM | NC(=O)C(=O)N1CCc2c(c(-c3ccc(Cl)c(C#Cc4ccc(CN[C@@H]5CCCc6ccccc65)cc4)c3)nn2CCCN2CCOCC2)C1 [Example 496, 2-[3-{4-Chloro-3-[(4-{[(1R)-1,2,3,4-tetrahydronaphthalen-1-ylamino]methyl}phenyl)ethynyl]phenyl}-1-(3-morpholin-4-ylpropyl)-1,4,6,7-tetrahydro-5H-pyrazolo[4,3-c]pyridin-5-yl]-2-oxoacetamide]
50 nM | CS(=O)(=O)N1CCc2c(c(-c3ccc(Cl)c(C#Cc4ccc(Cl)cc4)c3)nn2CC(O)CN2CCC3(CCNC3=O)CC2)C1 (stereo not drawn) [Example 298, 8-{3-[3-{4-Chloro-3-[(4-chlorophenyl)ethynyl]phenyl}-5-(methylsulfonyl)-4,5,6,7-tetrahydro-1H-pyrazolo[4,3-c]pyridin-1-yl]-2-hydroxypropyl}-2,8-diazaspiro[4.5]decan-1-one]
190 nM | CS(=O)(=O)N1CCc2c(c(-c3ccc(Cl)c(C#Cc4ccc(CNCc5ccc(Cl)cc5)cc4)c3)nn2CC(O)CN2CCOCC2)C1 (stereo not drawn) [Example 332, 1-[3-(4-Chloro-3-{[4-({[(4-chlorophenyl)methyl]amino}methyl)phenyl]ethynyl}phenyl)-5-(methylsulfonyl)-4,5,6,7-tetrahydro-1H-pyrazolo[4,3-c]pyridin-1-yl]-3-morpholin-4-ylpropan-2-ol]
3050 nM | CS(=O)(=O)N1CCc2c(c(-c3ccc(Cl)c(/C=C\c4ccccc4)c3)nn2CCCN2CCOCC2)C1 [Example 67, 3-(4-Chloro-3-Z-styryl-phenyl)-5-methanesulfonyl-1-(3-morpholin-4-yl-propyl)-4,5,6,7-tetrahydro-1H-pyrazolo[4,3-c]pyridine]
80 nM | CS(=O)(=O)N1CCc2c(c(-c3ccc(Cl)c(C#Cc4ccc(CNCc5ccc(Cl)c(Cl)c5)cc4)c3)nn2CCCN2CCOCC2)C1 [Example 212, 1-[4-({2-Chloro-5-[5-(methylsulfonyl)-1-(3-morpholin-4-ylpropyl)-4,5,6,7-tetrahydro-1H-pyrazolo[4,3-c]pyridin-3-yl]phenyl}ethynyl)phenyl]-N-[(3,4-dichlorophenyl)methyl]methanamine]
17000 nM | CS(=O)(=O)N1CCc2c(c(-c3ccc(Cl)c(CCCN)c3)nn2CCCN2CCOCC2)C1 [Example 304, 3-{2-Chloro-5-[5-(methylsulfonyl)-1-(3-morpholin-4-ylpropyl)-4,5,6,7-tetrahydro-1H-pyrazolo[4,3-c]pyridin-3-yl]phenyl}propan-1-amine]
3220 nM | CS(=O)(=O)N1CCc2c(c(-c3ccc(C(F)(F)F)c(CCCNS(=O)(=O)c4ccccc4)c3)nn2CC(O)CN2CCOCC2)C1 (stereo not drawn) [Example 306, N-(3-{5-[1-(2-Hydroxy-3-morpholin-4-ylpropyl)-5-(methylsulfonyl)-4,5,6,7-tetrahydro-1H-pyrazolo[4,3-c]pyridin-3-yl]-2-(trifluoromethyl)phenyl}propyl)benzenesulfonamide]

same assay, conditions: CatS IC50

Structure (SMILES) | IC50
CC(C)(C)OC(=O)N1CCc2ccc(C#Cc3cc(-c4nn(CCCN5CCC(C(N)=O)CC5)c5c4CN(S(C)(=O)=O)CC5)ccc3Cl)cc2C1 [Example 374, 1,1-Dimethylethyl 7-({5-[1-{3-[4-(aminocarbonyl)piperidin-1-yl]propyl}-5-(methylsulfonyl)-4,5,6,7-tetrahydro-1H-pyrazolo[4,3-c]pyridin-3-yl]-2-chlorophenyl}ethynyl)-3,4-dihydroisoquinoline-2(1H)-carboxylate] | 160 nM
C[C@H]1COCCN1CCCn1nc(-c2ccc(Cl)c(C#Cc3ccc(CN(C)Cc4ccc(Cl)cc4)cc3)c2)c2c1CCN(S(C)(=O)=O)C2 [Example 500, 1-[4-({2-Chloro-5-[1-{3-[(3S)-3-methylmorpholin-4-yl]propyl}-5-(methylsulfonyl)-4,5,6,7-tetrahydro-1H-pyrazolo[4,3-c]pyridin-3-yl]phenyl}ethynyl)phenyl]-N-[(4-chlorophenyl)methyl]-N-methylmethanamine] | 580 nM
CS(=O)(=O)N1CCc2c(c(-c3ccc(Cl)c(C#Cc4ccc(CNCc5ccncc5)cc4)c3)nn2CCCN2CCOCC2)C1 [Example 405, 1-[4-({2-Chloro-5-[5-(methylsulfonyl)-1-(3-morpholin-4-ylpropyl)-4,5,6,7-tetrahydro-1H-pyrazolo[4,3-c]pyridin-3-yl]phenyl}ethynyl)phenyl]-N-(pyridin-4-ylmethyl)methanamine] | 290 nM
CNCCCNC(=O)c1cc(C#Cc2cc(-c3nn(CCCN4CCSCC4)c4c3CN(C(=O)C(N)=O)CC4)ccc2Cl)ccc1Cl [Example 565, 5-[(5-{5-[Amino(oxo)acetyl]-1-(3-thiomorpholin-4-ylpropyl)-4,5,6,7-tetrahydro-1H-pyrazolo[4,3-c]pyridin-3-yl}-2-chlorophenyl)ethynyl]-2-chloro-N-[3-(methylamino)propyl]benzamide] | 20 nM
CN(Cc1ccccc1)Cc1cccc(C#Cc2cc(-c3nn(CCCN4CCOCC4)c4c3CN(S(C)(=O)=O)CC4)ccc2Cl)c1 [Example 528, 1-[3-({2-Chloro-5-[5-(methylsulfonyl)-1-(3-morpholin-4-ylpropyl)-4,5,6,7-tetrahydro-1H-pyrazolo[4,3-c]pyridin-3-yl]phenyl}ethynyl)phenyl]-N-methyl-N-(phenylmethyl)methanamine] | 580 nM
NC(=O)N1CCc2c(c(-c3ccc(Cl)c(C#Cc4ccc(CNCc5ccccc5F)cc4)c3)nn2CCCN2CCSCC2)C1 [Example 542, 3-(4-Chloro-3-{[4-({[(2-fluorophenyl)methyl]amino}methyl)phenyl]ethynyl}phenyl)-1-(3-thiomorpholin-4-ylpropyl)-1,4,6,7-tetrahydro-5H-pyrazolo[4,3-c]pyridine-5-carboxamide] | 180 nM
NC(=O)N1CCc2c(c(-c3ccc(Cl)c(C#Cc4ccc(CN[C@@H]5CCCc6ccccc65)cc4)c3)nn2CCCN2CCOCC2)C1 [Example 477, 3-{4-Chloro-3-[(4-{[(1R)-1,2,3,4-tetrahydronaphthalen-1-ylamino]methyl}phenyl)ethynyl]phenyl}-1-(3-morpholin-4-ylpropyl)-1,4,6,7-tetrahydro-5H-pyrazolo[4,3-c]pyridine-5-carboxamide] | 100 nM
CS(=O)(=O)N1CCc2c(c(-c3ccc(Cl)c(C#Cc4cccc(CNCC5CCOCC5)c4)c3)nn2CCCN2CCOCC2)C1 [Example 185, 1-[3-({2-Chloro-5-[5-(methylsulfonyl)-1-(3-morpholin-4-ylpropyl)-4,5,6,7-tetrahydro-1H-pyrazolo[4,3-c]pyridin-3-yl]phenyl}ethynyl)phenyl]-N-(tetrahydro-2H-pyran-4-ylmethyl)methanamine] | 520 nM
C[C@H]1COC[C@H](C)N1CCCn1nc(-c2ccc(Cl)c(C#Cc3ccc(CNCc4ccc(Cl)cc4)cc3)c2)c2c1CCN(C(=O)C(N)=O)C2 [Example 157, 2-(3-{4-Chloro-3-[(4-{[(4-chlorobenzyl)amino]methyl}phenyl)ethynyl]phenyl}-1-{3-[(3S,5S)-3,5-dimethylmorpholin-4-yl]propyl}-1,4,6,7-tetrahydro-5H-pyrazolo[4,3-c]pyridin-5-yl)-2-oxoacetamide] | 40 nM
CS(=O)(=O)N1CCc2c(c(-c3ccc(Cl)c(C#Cc4ccc(CNC5CCC5)cc4)c3)nn2CCCN2CCOCC2)C1 [Example 324, N-{[4-({2-Chloro-5-[5-(methylsulfonyl)-1-(3-morpholin-4-ylpropyl)-4,5,6,7-tetrahydro-1H-pyrazolo[4,3-c]pyridin-3-yl]phenyl}ethynyl)phenyl]methyl}cyclobutanamine] | 1340 nM

same assay, conditions: CatS IC50, Table 2; average of results obtained

Structure (SMILES) | IC50
O=C(c1ccco1)N1CCc2c(c(-c3ccc(Cl)c(C#Cc4ccc(Cl)cc4)c3)nn2CCCN2CCOCC2)C1 [Example 138, [3-[4-Chloro-3-(4-chloro-phenylethynyl)-phenyl]-1-(3-morpholin-4-yl-propyl)-1,4,6,7-tetrahydro-pyrazolo[4,3-c]pyridin-5-yl]-furan-2-yl-methanone] | 350 nM
